Read-outs that look alike come from different tables or passages of the source.
How the values were obtained:
Assay type in all cases: cell-based
human TLR9 = target: T1, human TLR9 (Homo sapiens, UniProt Q9NR96); assay: TLR9 inhibition reporter assay (HEK-Blue cells, secreted embryonic alkaline phosphatase reporter)
T1 construct: host or cells: HEK-Blue cells (HEK293-derived reporter line)
T1 sequence (Q9NR96 26-1032): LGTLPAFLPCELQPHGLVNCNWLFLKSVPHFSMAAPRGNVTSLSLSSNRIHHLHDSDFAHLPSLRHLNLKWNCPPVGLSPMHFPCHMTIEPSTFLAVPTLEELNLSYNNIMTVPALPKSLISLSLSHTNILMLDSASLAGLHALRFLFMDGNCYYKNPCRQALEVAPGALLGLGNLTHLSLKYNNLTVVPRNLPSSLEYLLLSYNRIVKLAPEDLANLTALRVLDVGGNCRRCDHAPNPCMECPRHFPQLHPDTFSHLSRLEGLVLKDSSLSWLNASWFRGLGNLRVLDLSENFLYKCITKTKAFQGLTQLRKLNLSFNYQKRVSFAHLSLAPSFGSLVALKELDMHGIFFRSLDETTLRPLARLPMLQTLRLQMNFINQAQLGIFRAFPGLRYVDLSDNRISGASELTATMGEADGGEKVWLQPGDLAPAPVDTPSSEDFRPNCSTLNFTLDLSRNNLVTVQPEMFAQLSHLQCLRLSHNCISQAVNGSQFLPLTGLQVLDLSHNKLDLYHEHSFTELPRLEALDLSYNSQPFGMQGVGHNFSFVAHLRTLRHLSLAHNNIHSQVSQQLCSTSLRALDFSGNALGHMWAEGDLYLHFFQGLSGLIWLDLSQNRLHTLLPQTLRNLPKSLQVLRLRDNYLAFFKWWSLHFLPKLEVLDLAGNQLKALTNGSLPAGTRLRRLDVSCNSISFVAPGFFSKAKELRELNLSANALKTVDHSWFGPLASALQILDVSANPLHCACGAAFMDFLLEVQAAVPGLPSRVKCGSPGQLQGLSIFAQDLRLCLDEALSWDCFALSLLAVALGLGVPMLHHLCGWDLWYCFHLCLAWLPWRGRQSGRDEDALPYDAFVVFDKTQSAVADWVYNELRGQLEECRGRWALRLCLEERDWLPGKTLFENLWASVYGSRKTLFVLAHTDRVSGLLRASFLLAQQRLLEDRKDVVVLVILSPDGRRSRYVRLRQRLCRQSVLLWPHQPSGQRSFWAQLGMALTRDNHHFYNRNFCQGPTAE
Summary of the method: (§1)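 HEK-Blue cells expressing human TLR7, TLR8 or TLR9 with an NF-κB/AP-1-driven SEAP reporter were pretreated with compound (0.05 nM–50 μM final) for 30 min at room temperature. Agonists were gardiquimod 7.5 μM for TLR7, R848 15.9 μM for TLR8 and ODN2006 5 nM for TLR9. SEAP was read after 22 h at 37 °C, and inhibition was calculated relative to agonist-plus-DMSO and known-inhibitor controls.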

human TLR7 = target: T2, human TLR7 (Homo sapiens, UniProt Q9NYK1); assay: TLR7 inhibition reporter assay (HEK-Blue cells, secreted embryonic alkaline phosphatase reporter); conditions: HEK-Blue cells overexpressing human TLR7, stimulated with gardiquimod 7.5 μM; read-out: TLR 7 IC50
T2 construct: host or cells: HEK-Blue cells (HEK293-derived reporter line)
T2 sequence (Q9NYK1 27-1049): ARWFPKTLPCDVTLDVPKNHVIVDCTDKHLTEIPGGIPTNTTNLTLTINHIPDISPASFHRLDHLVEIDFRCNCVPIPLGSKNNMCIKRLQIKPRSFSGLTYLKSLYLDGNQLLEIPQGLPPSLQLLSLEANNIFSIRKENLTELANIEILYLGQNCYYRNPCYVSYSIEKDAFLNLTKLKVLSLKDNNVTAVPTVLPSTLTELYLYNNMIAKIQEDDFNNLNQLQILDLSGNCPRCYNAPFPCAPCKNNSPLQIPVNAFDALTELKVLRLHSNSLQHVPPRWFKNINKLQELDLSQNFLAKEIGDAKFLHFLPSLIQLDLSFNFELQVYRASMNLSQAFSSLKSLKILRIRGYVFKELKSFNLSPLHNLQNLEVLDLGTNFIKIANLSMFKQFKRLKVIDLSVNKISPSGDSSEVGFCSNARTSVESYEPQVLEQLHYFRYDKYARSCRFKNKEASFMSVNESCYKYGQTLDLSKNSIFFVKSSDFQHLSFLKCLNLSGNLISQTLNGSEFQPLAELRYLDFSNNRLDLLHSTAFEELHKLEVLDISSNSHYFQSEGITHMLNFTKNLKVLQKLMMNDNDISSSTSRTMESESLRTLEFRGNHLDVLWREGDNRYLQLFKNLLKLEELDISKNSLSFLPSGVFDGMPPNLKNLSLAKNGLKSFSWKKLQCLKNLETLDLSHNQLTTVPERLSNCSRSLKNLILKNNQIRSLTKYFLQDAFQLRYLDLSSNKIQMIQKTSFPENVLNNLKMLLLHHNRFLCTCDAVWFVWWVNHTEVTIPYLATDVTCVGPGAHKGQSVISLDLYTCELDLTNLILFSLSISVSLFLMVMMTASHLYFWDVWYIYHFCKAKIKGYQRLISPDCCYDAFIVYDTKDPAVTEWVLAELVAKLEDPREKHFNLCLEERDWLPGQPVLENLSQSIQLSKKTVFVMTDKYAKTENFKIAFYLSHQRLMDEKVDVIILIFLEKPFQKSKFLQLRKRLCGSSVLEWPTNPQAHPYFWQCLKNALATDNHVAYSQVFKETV
Summary of the method: as §1

human TLR8 = target: T3, human TLR8 (Homo sapiens, UniProt Q9NR97); assay: TLR8 inhibition reporter assay (HEK-Blue cells, secreted embryonic alkaline phosphatase reporter); conditions: HEK-Blue cells overexpressing human TLR8, stimulated with R848 15.9 μM; read-out: TLR 8 IC50
T3 construct: host or cells: HEK-Blue cells (HEK293-derived reporter line)
T3 sequence (Q9NR97 27-1041): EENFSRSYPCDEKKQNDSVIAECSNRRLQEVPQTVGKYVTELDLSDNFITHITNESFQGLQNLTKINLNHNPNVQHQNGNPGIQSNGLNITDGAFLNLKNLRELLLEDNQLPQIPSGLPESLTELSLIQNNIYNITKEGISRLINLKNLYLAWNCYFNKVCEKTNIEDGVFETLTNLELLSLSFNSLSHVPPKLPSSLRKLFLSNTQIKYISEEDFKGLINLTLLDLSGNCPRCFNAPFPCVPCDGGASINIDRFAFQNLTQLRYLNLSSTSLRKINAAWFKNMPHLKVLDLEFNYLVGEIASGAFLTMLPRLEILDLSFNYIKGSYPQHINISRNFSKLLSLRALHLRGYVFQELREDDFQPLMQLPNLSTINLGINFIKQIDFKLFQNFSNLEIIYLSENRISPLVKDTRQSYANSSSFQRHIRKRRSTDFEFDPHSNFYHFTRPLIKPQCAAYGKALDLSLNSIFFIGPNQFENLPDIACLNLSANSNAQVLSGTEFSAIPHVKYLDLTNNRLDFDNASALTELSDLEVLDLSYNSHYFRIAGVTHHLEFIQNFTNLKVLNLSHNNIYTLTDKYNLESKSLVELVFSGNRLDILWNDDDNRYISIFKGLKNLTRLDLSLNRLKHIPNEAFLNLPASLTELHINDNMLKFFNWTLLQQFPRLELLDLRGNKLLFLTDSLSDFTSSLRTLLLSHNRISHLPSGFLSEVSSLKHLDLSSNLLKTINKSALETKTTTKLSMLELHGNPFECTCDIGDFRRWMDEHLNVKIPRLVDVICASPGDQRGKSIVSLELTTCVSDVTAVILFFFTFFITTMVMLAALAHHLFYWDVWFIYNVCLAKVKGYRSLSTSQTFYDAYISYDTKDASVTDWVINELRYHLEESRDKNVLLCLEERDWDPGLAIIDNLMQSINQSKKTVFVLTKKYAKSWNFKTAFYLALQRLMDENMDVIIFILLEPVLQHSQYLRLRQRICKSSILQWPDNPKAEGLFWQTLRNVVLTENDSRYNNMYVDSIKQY
Summary of the method: as §1

[1] = HEK-Blue cells overexpressing human TLR9, stimulated with ODN2006 5 nM, 22 hour incubation, reporter readout
[2] = HEK-Blue cells overexpressing human TLR9, stimulated with ODN2006 5 nM, read-out: TLR 9 IC50
[3] = HEK-Blue human TLR9 reporter cells

Structure (SMILES)	IC50 (human TLR9; [1]) [nM]	IC50 (human TLR9; [2]) [nM]	IC50 (human TLR7) [nM]	IC50 (human TLR8) [nM]	IC50 (human TLR9) [nM]	IC50 (human TLR9; [3]) [nM]
COc1ccc(-c2nc3ccc(C4CCN(C5CCN(CC(C)C)CC5)CC4)cc3n2C(C)C)cc1OC [Example 30, 2-(3,4-dimethoxyphenyl)-6-(1′-isobutyl-[1,4′-bipiperidin]-4-yl)-1-isopropyl-1H-benzo[d]imidazole]	250	254	9800	> 50000	–	–
Cc1cc(-c2cc(F)cc(CN3CCC(N4CCC4)CC3)c2)cc2c1nc(-c1ccc(S(C)(=O)=O)cc1)n2C [Example 406, 6-(3-((4-(azetidin-1-yl)piperidin-1-yl)methyl)-5-fluorophenyl)-1,4-dimethyl-2-(4-(methylsulfonyl)phenyl)-1H-benzo[d]imidazole]	130	133	600	2000	–	–
COc1ccc(-c2nc3c(C)cc(C4CCN(C5CC6(C5)CN(CC5CC5)C6)CC4)cc3n2C)cc1OC [Example 48, 6-(1-(2-(cyclopropylmethyl)-2-azaspiro[3.3]heptan-6-yl)piperidin-4-yl)-2-(3,4-dimethoxyphenyl)-1,4-dimethyl-1H-benzo[d]imidazole]	19	19	> 50000	> 50000	–	–
Cn1c(-c2ccc(S(C)(=O)=O)cc2)nc2c(F)c(C3CCN(C4CC5CCC(C4)N5CC4COC4)CC3)ccc21 (single isomer, unassigned) [Example 193, 4-fluoro-1-methyl-2-(4-(methylsulfonyl)phenyl)-5-(1-(8-(oxetan-3-ylmethyl)-8-azabicyclo[3.2.1]octan-3-yl)piperidin-4-yl)-1H-benzo[d]imidazole]	–	82	> 50000	> 50000	82	–
COc1ccc(-c2nc3c(C)cc(C4CCN(C5CCN(C6CC6)CC5)CC4)cc3[nH]2)cc1OC [Example 44, 6-(1′-cyclopropyl-[1,4′-bipiperidin]-4-yl)-2-(3,4-dimethoxyphenyl)-4-methyl-1H-benzo[d]imidazole]	52	52	9100	5500	–	–
CC(C)CN1C2CCC1CC(N1CCC(c3cc4nc(-c5ccc(S(C)(=O)=O)cc5)n(C)c4cc3F)CC1)C2 (centres unmarked) [Example 247, 6-fluoro-5-(1-(8-isobutyl-8-azabicyclo[3.2.1]octan-3-yl)piperidin-4-yl)-1-methyl-2-(4-(methylsulfonyl)phenyl)-1H-benzo[d]imidazole]	–	30	21100	> 50000	30	–
COCCN1CCC(N2CCC(c3cc(F)c4nc(-c5ccc(S(C)(=O)=O)cc5)n(C)c4c3)CC2)CC1 [Example 281, 4-fluoro-6-(1′-(2-methoxyethyl)-[1,4′-bipiperidin]-4-yl)-1-methyl-2-(4-(methylsulfonyl)phenyl)-1H-benzo[d]imidazole]	–	124	7000	> 50000	120	–
CC(C)CN1C2CCC1CC(N1CCC(c3cc(F)c4nc(-c5ccc(S(C)(=O)=O)cc5)n(C5CC5)c4c3)CC1)C2 (single isomer, unassigned) [Example 323, 1-cyclopropyl-4-fluoro-6-(1-(8-isobutyl-8-azabicyclo[3.2.1]octan-3-yl)piperidin-4-yl)-2-(4-(methylsulfonyl)phenyl)-1H-benzo[d]imidazole]	–	60	2100	> 50000	–	60
CC(C)CN1CCCC(N2CCC(c3cc(F)c4nc(-c5ccc(S(C)(=O)=O)cc5)n(C)c4c3)CC2)CC1 (centres unmarked) [Example 296, 4-fluoro-6-(1-(1-isobutylazepan-4-yl)piperidin-4-yl)-1-methyl-2-(4-(methylsulfonyl)phenyl)-1H-benzo[d]imidazole]	–	22	14100	> 50000	–	22
Cn1c(-c2ccc(S(C)(=O)=O)cc2)nc2cc(C3CCN(C4CC5CCC(C4)N5C4CCOCC4)CC3)c(F)cc21 (single isomer, unassigned) [Example 255, 6-fluoro-1-methyl-2-(4-(methylsulfonyl)phenyl)-5-(1-(8-(tetrahydro-2H-pyran-4-yl)-8-azabicyclo[3.2.1]octan-3-yl)piperidin-4-yl)-1H-benzo[d]imidazole]	–	72	> 50000	> 50000	72	–
Cc1cc(C2CCN(C3CCN(C4CCC4)CC3)CC2)cc2c1nc(-c1ccc(S(C)(=O)=O)c(F)c1)n2C [Example 337, 6-(1′-cyclobutyl-[1,4′-bipiperidin]-4-yl)-2-(3-fluoro-4-(methylsulfonyl)phenyl)-1,4-dimethyl-1H-benzo[d]imidazole]	–	53	1200	> 50000	–	53

Reference: patent US12492188B2, “1H-benzo[D]imidazole derivatives as TLR9 inhibitors for the treatment of fibrosis” (BRISTOL-MYERS SQUIBB COMPANY, priority 2020, dated 2025)
